The text below walks through data of ChEMBL document CHEMBL5465560, “Selectivity Literature for EUbOPEN Chemogenomic Library” (2024).

SMILES strings stand for the structures. Some results are limits rather than exact numbers.

For experiment [1], the target named is Cyclin-dependent kinase 5 (Homo sapiens, UniProt Q00535). Conditions: at 10 µM.
The target in experiment [2] is Ribosomal protein S6 kinase alpha-4 (Homo sapiens) (UniProt O75676). Conditions: at 10 µM.
In experiment [3] the target is Angiopoietin-1 receptor (Homo sapiens) (UniProt Q02763). Kind of experiment: Selectivity interaction (SelectScreen profiling (Invitrogen)) EUB0000607a TEK. Conditions: at 2 µM.
Experiment [4] has as its target Activin receptor type-1-like (Homo sapiens) (UniProt P37023). Conditions: at 10 µM.
The target of experiment [5] is Ribosomal protein S6 kinase alpha-1 (Homo sapiens, UniProt Q15418). The experiment in a line: Selectivity interaction (ActivX KiNativ screen (kinase selectivity in THP-1 cell lysates)) EUB0000639a RPS6KA1. Conditions: lysate, at 0.01 µM. It counts as subcellular.
The target in experiment [6] is BMP-2-inducible protein kinase (Homo sapiens) (UniProt Q9NSY1). Kind of experiment: Selectivity interaction (KinomeScan (DiscoverX)) EUB0000045b BMP2K.
BMP-2-inducible protein kinase (Homo sapiens), sequence (Q9NSY1 whole entry, looked up): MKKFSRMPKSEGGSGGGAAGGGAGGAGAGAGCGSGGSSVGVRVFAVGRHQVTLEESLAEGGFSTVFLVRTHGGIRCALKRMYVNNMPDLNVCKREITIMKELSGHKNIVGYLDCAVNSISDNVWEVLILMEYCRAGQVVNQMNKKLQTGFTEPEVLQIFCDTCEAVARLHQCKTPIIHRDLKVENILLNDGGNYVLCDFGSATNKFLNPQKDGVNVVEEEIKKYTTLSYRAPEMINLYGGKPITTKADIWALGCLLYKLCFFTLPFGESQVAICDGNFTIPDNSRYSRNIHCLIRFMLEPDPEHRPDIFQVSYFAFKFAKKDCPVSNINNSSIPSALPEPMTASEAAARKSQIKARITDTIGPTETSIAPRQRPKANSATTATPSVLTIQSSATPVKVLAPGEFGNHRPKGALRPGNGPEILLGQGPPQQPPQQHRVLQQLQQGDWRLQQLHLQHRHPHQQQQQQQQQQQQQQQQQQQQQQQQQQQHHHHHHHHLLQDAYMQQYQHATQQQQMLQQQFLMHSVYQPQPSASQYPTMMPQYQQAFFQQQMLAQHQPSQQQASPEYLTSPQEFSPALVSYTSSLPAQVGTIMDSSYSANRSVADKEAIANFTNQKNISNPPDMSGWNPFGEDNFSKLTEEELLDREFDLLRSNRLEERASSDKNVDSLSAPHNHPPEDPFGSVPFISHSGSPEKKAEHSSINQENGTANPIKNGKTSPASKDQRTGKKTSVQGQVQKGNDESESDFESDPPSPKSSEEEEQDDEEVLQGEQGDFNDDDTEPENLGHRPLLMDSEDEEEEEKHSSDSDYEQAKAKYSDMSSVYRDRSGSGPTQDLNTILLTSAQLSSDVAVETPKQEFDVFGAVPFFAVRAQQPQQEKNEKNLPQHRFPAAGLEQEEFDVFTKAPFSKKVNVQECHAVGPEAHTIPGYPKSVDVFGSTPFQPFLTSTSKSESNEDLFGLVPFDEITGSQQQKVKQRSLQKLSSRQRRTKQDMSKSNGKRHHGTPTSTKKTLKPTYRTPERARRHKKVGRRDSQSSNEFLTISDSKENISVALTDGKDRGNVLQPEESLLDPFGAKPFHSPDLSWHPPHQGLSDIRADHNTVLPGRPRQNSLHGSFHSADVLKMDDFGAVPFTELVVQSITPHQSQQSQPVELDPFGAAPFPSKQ
The target in experiment [7] is Ribosomal protein S6 kinase alpha-5 (Homo sapiens) (UniProt O75582). The experiment in a line: Selectivity interaction (Kinase panel (literature)) EUB0001199aCl RPS6KA5. Conditions: at 1 µM.
Ribosomal protein S6 kinase alpha-5 (Homo sapiens), sequence (O75582 whole entry, looked up): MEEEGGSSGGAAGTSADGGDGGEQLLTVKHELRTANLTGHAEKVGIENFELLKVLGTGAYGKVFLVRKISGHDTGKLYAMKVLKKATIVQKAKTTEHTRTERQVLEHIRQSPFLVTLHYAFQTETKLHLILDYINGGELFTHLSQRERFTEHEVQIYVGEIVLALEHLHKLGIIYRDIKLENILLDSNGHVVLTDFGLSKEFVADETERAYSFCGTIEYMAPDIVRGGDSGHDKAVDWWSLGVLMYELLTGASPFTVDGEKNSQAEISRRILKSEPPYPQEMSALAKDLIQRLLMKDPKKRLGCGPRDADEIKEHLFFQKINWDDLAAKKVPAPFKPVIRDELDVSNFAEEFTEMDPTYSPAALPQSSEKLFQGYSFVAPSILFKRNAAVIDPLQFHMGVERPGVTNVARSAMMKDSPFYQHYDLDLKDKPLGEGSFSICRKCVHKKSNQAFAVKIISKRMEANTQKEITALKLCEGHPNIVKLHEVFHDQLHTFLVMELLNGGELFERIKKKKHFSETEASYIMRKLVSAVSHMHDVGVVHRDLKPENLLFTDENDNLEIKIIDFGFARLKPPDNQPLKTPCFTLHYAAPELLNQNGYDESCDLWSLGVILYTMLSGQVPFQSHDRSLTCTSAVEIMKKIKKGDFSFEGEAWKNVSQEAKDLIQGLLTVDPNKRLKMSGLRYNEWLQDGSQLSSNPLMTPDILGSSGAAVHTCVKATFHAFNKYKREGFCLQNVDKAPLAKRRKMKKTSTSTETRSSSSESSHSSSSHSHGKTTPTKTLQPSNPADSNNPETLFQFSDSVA
The target in experiment [8] is Homeodomain-interacting protein kinase 1 (Homo sapiens, UniProt Q86Z02). The experiment in a line: Selectivity interaction (Enzymatic assay (Eurofins)) EUB0001049a HIPK1.
Homeodomain-interacting protein kinase 1, sequence (Q86Z02 whole entry): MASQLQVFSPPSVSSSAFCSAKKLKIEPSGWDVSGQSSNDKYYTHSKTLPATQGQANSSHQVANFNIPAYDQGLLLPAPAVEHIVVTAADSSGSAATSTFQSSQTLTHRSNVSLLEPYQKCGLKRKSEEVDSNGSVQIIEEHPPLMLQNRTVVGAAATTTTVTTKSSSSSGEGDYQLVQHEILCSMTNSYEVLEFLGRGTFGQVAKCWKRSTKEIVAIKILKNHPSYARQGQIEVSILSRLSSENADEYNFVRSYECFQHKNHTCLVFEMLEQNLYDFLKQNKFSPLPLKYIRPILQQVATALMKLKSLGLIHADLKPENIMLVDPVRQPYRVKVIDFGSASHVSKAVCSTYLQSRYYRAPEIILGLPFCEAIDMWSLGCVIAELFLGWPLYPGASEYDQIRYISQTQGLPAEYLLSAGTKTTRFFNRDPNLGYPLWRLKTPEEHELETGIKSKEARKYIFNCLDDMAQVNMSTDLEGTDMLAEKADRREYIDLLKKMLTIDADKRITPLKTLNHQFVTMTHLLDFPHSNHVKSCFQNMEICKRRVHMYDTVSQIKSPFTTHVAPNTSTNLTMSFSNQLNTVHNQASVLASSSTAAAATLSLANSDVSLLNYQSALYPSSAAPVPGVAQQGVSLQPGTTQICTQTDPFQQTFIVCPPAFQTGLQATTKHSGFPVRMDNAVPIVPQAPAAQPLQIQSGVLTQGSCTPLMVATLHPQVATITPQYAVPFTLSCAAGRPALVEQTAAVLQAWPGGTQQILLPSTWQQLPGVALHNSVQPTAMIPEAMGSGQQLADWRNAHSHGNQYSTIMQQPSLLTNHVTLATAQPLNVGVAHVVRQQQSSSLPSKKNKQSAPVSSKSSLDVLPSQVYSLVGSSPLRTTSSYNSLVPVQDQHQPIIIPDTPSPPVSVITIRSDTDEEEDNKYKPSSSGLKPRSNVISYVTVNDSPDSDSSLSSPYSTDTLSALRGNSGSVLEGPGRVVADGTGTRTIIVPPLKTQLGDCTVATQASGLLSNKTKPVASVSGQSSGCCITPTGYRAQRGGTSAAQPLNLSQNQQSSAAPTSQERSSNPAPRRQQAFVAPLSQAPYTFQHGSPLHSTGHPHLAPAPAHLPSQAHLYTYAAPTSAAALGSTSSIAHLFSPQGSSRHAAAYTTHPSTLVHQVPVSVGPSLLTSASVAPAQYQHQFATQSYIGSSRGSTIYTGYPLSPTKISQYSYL
For experiment [9], the target named is T1, Alpha-1B adrenergic receptor (Homo sapiens) (UniProt P35368).
T1 sequence (whole entry): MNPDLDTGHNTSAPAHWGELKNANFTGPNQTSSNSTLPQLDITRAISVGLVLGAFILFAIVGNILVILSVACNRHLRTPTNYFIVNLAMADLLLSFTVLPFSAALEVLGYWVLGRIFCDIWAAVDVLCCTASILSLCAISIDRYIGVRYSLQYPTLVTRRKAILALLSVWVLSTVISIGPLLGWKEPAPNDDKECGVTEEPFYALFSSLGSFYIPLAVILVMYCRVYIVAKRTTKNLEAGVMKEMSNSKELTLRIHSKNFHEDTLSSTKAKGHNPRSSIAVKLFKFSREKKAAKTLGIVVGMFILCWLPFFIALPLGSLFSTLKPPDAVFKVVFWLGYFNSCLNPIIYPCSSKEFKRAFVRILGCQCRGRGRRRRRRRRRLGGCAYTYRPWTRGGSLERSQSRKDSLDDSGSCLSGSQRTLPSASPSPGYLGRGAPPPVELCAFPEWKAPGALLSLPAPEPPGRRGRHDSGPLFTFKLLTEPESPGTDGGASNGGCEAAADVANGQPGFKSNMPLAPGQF
Kind of experiment: Selectivity interaction (Panel of kinases, GPCRs, ion channels and transporters (enzymatic assay)) EUB0000223bCl ADRA1B.

The target in experiment [10] is Platelet-derived growth factor receptor alpha (Homo sapiens, UniProt P16234). Kind of experiment: Selectivity interaction (Upstate Kinase Profiler service (Millipore)) EUB0000056c PDGFRA. Conditions: at 1 µM.
For experiment [11], the target named is Ribosomal protein S6 kinase alpha-5 (Homo sapiens) (UniProt O75582). Kind of experiment: Selectivity interaction (Upstate Kinase Profiler service (Millipore)) EUB0000056c RPS6KA5. Conditions: at 1 µM.
The target of experiment [12] is Beta-2 adrenergic receptor (Homo sapiens, UniProt P07550). The experiment in a line: Selectivity interaction (Beta 2 adrenergic receptor assay, human recombinant ) EUB0000877a ADRB2.
Beta-2 adrenergic receptor, sequence (P07550 whole entry): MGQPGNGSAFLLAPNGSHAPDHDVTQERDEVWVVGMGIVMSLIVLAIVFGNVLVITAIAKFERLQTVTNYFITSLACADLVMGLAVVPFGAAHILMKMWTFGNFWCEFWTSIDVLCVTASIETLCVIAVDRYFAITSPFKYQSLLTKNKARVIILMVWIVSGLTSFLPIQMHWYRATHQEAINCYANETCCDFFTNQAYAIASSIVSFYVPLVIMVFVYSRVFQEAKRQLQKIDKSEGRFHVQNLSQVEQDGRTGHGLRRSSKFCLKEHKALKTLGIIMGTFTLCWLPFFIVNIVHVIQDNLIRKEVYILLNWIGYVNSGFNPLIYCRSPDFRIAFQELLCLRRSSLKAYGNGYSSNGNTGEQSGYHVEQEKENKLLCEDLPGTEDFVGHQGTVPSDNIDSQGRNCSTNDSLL
For experiment [13], the target named is Cholecystokinin receptor type A (Homo sapiens, UniProt P32238). Kind of experiment: Selectivity interaction (Cholecystokinin A receptor binding assay, human recombinant ) EUB0000877a CCKAR.
The target of experiment [14] is Maternal embryonic leucine zipper kinase (Homo sapiens) (UniProt Q14680). The experiment in a line: Selectivity interaction (KinomeScan (DiscoverX)) EUB0000655a MELK. Conditions: at 10 µM.
Experiment [15] has as its target T2, MAP/microtubule affinity-regulating kinase 4 (Homo sapiens) (UniProt Q96L34).
T2 sequence (whole entry): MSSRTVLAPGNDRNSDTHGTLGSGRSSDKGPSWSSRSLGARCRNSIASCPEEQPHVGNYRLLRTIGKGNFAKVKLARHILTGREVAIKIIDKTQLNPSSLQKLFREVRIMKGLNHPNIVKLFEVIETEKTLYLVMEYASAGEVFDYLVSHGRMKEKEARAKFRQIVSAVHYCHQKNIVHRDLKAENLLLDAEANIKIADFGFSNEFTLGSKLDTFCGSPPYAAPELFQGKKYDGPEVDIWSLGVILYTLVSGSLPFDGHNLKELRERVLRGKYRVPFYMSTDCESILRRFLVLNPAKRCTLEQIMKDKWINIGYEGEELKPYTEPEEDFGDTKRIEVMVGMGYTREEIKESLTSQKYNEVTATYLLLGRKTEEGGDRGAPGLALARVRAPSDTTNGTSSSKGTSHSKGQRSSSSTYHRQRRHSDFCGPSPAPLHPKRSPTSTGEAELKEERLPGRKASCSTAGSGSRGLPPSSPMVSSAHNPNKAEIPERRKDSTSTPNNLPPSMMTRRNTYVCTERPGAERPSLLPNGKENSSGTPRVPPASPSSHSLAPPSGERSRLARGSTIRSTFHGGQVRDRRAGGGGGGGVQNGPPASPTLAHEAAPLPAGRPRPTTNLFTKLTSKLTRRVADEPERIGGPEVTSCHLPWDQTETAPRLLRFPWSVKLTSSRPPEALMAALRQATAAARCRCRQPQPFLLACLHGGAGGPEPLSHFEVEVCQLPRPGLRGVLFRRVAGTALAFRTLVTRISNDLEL
The experiment in a line: Selectivity interaction (KinomeScan (DiscoverX)) EUB0000618a MARK4. Conditions: at 10 µM.

Experiment [16] addresses Tyrosine-protein kinase ABL1 (Homo sapiens, UniProt P00519). The experiment in a line: Selectivity interaction (Kinase panel (DSF assay)) EUB0001558a ABL1.
The target in experiment [17] is Cyclin-dependent kinase 4/cyclin D1 (Homo sapiens) (UniProt P11802+P24385). Kind of experiment: (§1) Selectivity interaction (KinomeScan (DiscoverX)) EUB0001079a CDK4. Type of experiment: protein-complex assay. Conditions: at 1 µM.
In experiment [18] the target is CDK4/Cyclin D3 (Homo sapiens) (UniProt P11802+P30281). Described as §1. Conditions: at 1 µM. It counts as protein-complex assay.
Experiment [19] concerns the target Ribosomal protein S6 kinase alpha-3 (Homo sapiens, UniProt P51812). Kind of experiment: Selectivity interaction (Kinase panel (KiNativ target engagement assay in Jurkat cells)) EUB0001635a RPS6KA3. Type of experiment: cell-based. Conditions: Selectivity number of off-targets 0.0, Selectivity number of targets 233.0, Source Knowledge https://www.sciencedirect.com/science/article/pii/S2451945619300674?via%3Dihub, at 1 µM.

Tyrosine-protein kinase ABL1, sequence (P00519 whole entry): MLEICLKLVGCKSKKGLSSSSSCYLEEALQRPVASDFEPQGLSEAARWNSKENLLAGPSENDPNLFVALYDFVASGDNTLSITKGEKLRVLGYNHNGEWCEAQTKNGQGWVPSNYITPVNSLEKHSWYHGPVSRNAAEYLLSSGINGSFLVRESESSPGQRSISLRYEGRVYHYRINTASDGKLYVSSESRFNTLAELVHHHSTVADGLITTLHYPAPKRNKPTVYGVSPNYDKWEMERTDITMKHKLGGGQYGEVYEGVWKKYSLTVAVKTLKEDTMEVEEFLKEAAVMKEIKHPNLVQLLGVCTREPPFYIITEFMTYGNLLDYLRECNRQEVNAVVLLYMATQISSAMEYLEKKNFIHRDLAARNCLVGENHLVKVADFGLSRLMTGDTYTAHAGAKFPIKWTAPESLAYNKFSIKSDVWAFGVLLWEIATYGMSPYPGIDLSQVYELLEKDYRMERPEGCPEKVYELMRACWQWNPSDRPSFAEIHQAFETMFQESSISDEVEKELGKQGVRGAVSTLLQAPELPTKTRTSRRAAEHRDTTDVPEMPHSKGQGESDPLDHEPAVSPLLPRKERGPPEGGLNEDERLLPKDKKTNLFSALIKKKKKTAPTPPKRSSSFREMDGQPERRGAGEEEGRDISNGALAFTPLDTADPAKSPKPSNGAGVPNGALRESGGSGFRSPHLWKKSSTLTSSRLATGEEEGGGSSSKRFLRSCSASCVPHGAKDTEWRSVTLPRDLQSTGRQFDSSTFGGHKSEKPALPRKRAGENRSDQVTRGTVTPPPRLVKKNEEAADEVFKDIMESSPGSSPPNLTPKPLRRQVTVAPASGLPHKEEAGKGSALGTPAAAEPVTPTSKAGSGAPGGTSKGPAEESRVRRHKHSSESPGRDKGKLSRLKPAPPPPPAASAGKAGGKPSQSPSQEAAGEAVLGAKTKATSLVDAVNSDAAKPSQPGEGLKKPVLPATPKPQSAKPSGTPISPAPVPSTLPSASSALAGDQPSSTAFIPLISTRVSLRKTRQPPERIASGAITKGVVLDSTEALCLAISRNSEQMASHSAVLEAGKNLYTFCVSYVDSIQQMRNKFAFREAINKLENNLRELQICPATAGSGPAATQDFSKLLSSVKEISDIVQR
Cyclin-dependent kinase 5, sequence (Q00535 whole entry, looked up): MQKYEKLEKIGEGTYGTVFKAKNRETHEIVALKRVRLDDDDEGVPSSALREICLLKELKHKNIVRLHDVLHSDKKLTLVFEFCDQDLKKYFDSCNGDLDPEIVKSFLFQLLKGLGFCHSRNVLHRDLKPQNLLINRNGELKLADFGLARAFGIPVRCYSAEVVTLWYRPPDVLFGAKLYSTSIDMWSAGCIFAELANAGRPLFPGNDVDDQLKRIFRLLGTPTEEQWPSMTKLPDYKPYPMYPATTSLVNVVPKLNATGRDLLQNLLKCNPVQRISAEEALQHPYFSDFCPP

Regarding `CCN(CC)CCCCNc1ncc2cc(-c3cc(OC)cc(OC)c3)c(NC(=O)NC(C)(C)C)nc2n1`, the % of control in experiment [1] and in experiment [2] was 100% throughout.

For the molecule `CNC(=O)Nc1ccc(-c2nc(N3CC4CCC(C3)O4)c3cnn(C4CCC5(CC4)OCCO5)c3n2)cc1`, the % of inhibition in [3] was 10%.

In experiment [4], `Cc1cc([C@@H](C)Nc2ccccc2C(=O)O)c2nc(N3CCOCC3)cc(=O)n2c1` [AZD-6482] came in with a % of control of 89%.

Take `CC[C@@H]1[C@H](F)C(=O)N[C@@H]1COc1nccc2cc(C(N)=O)c(OC)cc12` [ZIMLOVISERTIB]: in experiment [5], the % of inhibition is -8.3%.

For `C=CC(=O)Nc1cc(-n2c(=O)ccc3cnc4ccc(-c5ccc(NS(C)(=O)=O)cc5)cc4c32)ccc1C`, the % of control in [6] (at 1 µM) was found to be 76%; in [6] (at 10 µM), 39%.

For `CN1Cc2nccc(-c3cn(C)nc3-c3ccc(F)cc3)c2C1=O`, the % of inhibition in experiment [7] is 0%.

For the molecule `COc1cc(Nc2nc(C)cc(-c3cnn4nc(OC)ccc34)n2)cc(C(F)(F)F)c1`, in [8], the half-maximal inhibitory concentration (IC50) was greater than 10 µM.

The molecule `COc1cc(C(=O)N2CC[C@@H](O)[C@@H](N)C2)cc2nc(-c3cc4ccccc4n3CC3CC3)n(C)c12` had a pXC50 in experiment [9] of 4.9 M.

As for `Cc1ccc(-c2ccc3c(ccc4sc5c(c43)NC[C@@H](C)NC5=O)n2)cn1`, the % of inhibition in [10] is -24%; in experiment [11], -9%.

Regarding `CCC(=O)N1CC[C@H](Nc2ncnc3c2CN(c2cnc(OC)c(C(F)(F)F)c2)CC3)C1` [LENIOLISIB], the IC50 in experiment [12] and in experiment [13] was greater than 30 µM throughout.

For `CN(C)CCOc1ccc(-c2nc(-c3ccncc3)c(-c3ccc4c(c3)CC/C4=N\O)[nH]2)cc1`, the % of control in experiment [14] turned out to be 100%.

Regarding `O[C@H]1CC[C@H](Nc2ncc3nc(Nc4c(F)cc(F)cc4F)n([C@H]4CCOC4)c3n2)CC1`, in experiment [15], the % of control turned out to be 100%.

Take `CC(C)(O)[C@H](F)CN1Cc2cc(NC(=O)c3cnn4cccnc34)c(N3CCOCC3)cc2C1=O`: the dTM in experiment [16] was 1.7 K.

As to `Nc1cnc(N2CCc3cc(S(=O)(=O)Nc4c(F)cc(Cl)cc4F)cc(N4CCCC4=O)c32)nc1` [TP-020n], the values for the % of control in [17] and in [18] were 97% and 86%, respectively.

Molecule `C=CC(=O)Nc1ccc(C(=O)Nc2[nH]nc3c2CN(C(=O)N[C@H](CN(C)C)c2ccccc2)C3(C)C)cc1` showed a % of engagement in [19] of 13.1%.
